According to patent US20090306133A1, “New Acetyl Coenzyme A Carboxylase (ACC) Inhibitors And Uses In Treatments Of Obesity And Diabetes Mellitus - 087” (ASTRAZENECA AB, priority 2007, published 2009):

Key:
[1] = biological target: Human recombinant Acetyl-CoA Carboxylase 2 (ACC2) (Homo sapiens, UniProt O00763); assay: Assay Y: ACC2 inhibition, inorganic phosphate (Malachite Green); type: biochemical; details: Assay Y: room temperature, 3 hr, 15 min preincubation
Method in brief: (§1)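 Enzyme preincubated with compound 15 min before substrate addition; reaction run 3 h, then phosphate detected with Malachite Green at 670 nm after 10 min at room temperature. Triplicate 10-point titrations; IC50 by non-linear four-parameter curve fitting.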

[2] = biological target: Human recombinant Acetyl-CoA Carboxylase 1 (ACC1) (Homo sapiens, UniProt Q13085); assay: Assay Y: ACC1 inhibition, inorganic phosphate (Malachite Green); type: biochemical; details: Assay Y: room temperature, 3 hr, 15 min preincubation
Method in brief: as §1

Chain of Human recombinant Acetyl-CoA Carboxylase 2 (ACC2) (O00763 whole entry): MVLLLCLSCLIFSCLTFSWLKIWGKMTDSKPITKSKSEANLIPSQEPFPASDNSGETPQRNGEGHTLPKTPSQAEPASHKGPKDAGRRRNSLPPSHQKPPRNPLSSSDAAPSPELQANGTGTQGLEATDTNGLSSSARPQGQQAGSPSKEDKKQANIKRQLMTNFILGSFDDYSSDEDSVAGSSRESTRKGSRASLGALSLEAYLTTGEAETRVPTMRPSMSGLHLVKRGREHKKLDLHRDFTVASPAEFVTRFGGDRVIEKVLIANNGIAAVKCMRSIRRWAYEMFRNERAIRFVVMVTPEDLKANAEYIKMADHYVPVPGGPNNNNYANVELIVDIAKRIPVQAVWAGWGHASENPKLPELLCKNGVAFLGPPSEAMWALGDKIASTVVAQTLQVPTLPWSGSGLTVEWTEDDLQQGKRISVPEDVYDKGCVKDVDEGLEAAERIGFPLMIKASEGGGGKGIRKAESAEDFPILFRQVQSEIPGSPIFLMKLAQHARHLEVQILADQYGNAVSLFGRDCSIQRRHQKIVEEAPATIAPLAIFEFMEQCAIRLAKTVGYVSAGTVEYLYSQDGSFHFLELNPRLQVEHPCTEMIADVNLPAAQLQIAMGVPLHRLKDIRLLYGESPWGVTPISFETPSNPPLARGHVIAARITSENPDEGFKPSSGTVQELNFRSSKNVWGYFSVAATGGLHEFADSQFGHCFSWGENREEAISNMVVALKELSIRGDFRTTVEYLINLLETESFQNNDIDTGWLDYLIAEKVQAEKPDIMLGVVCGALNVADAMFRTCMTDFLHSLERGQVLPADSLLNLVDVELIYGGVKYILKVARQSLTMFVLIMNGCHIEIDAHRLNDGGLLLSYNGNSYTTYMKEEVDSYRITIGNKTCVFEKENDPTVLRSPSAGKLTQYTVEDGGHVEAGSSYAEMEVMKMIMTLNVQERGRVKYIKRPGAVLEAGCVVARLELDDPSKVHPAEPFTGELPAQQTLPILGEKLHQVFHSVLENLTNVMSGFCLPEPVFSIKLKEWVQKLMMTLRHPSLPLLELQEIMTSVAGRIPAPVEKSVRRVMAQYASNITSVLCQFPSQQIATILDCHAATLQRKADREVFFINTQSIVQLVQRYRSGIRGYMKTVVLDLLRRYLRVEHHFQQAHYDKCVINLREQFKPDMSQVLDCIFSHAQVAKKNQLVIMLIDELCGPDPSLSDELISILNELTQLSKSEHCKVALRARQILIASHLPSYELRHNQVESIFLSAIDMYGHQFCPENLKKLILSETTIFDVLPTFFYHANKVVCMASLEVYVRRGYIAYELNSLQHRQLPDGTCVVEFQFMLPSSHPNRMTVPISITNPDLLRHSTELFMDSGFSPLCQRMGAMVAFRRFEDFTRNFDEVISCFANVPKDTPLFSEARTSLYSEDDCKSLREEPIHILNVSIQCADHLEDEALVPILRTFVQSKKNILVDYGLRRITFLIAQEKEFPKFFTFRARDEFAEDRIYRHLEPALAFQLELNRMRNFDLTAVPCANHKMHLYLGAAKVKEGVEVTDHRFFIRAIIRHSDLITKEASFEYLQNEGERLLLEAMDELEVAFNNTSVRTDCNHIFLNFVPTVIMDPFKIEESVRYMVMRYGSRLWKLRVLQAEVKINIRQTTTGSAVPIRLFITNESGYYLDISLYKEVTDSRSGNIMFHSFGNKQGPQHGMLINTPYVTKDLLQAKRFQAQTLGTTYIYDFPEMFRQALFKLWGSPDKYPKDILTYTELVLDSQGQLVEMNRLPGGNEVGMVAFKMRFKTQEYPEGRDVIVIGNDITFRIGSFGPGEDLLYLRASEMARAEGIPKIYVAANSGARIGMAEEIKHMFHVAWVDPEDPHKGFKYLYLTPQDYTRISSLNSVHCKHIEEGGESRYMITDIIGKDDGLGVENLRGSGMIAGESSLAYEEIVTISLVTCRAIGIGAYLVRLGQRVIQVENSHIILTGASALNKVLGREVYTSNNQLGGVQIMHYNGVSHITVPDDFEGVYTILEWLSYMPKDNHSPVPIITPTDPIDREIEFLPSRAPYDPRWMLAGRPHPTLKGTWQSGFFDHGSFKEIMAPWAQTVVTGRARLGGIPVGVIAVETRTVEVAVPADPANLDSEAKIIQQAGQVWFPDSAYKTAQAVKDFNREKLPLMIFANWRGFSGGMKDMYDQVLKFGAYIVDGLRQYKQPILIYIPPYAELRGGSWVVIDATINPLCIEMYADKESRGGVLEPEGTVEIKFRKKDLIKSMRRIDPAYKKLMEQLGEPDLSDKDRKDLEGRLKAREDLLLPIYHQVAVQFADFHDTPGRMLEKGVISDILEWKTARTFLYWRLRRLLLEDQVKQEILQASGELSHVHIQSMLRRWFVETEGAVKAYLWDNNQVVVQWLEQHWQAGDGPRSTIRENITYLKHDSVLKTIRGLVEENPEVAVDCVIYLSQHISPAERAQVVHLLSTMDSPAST

Compound	IC50 [1] [µM]	IC50 [2] [µM]
Cc1nc(-c2cccc(S(=O)(=O)NC[C@H]3CC[C@H](CNC(=O)OC(C)(C)C)CC3)c2)no1 [Example 75, tert-Butyl ({trans-4-[({[3-(5-methyl-1,2,4-oxadiazol-3-yl)phenyl]sulfonyl}amino)-methyl]cyclohexyl}methyl)carbamate]	4.27	> 20
CC(C)(C)OC(=O)NC[C@H]1CC[C@H](CNS(=O)(=O)c2cccc3cnccc23)CC1 [Example 76, tert-Butyl [(trans-4-{[(isoquinolin-5-ylsulfonyl)amino]methyl}cyclohexyl)-methyl]carbamate]	3.62	> 20
CC(=O)Nc1nc(C)sc1S(=O)(=O)NC[C@H]1CC[C@H](CNC(=O)OC(C)(C)C)CC1 [Example 77, tert-Butyl {[trans-4-({[(4-acetamido-2-methyl-1,3-thiazol-5-yl)sulfonyl]amino}methyl)-cyclohexyl]methyl}carbamate]	3.62	9.32
CC(C)(C)OC(=O)NC[C@H]1CC[C@H](CNS(=O)(=O)c2ccc3ncsc3c2)CC1 [Example 78, tert-Butyl [(trans-4-{[(1,3-benzothiazol-6-ylsulfonyl)amino]methyl}cyclohexyl)-methyl]carbamate]	3.14	6.55
CCN(C[C@H]1CC[C@H](CNC(=O)OC(C)(C)C)CC1)S(=O)(=O)c1ccc2ccccc2c1 [Example 79, tert-Butyl [(trans-4-{[ethyl(2-naphthylsulfonyl)amino]methyl}cyclohexyl)methyl]-carbamate]	5.4	> 20
CC(C)(C)OC(=O)NC[C@H]1CC[C@H](CN(CCc2ccccc2)S(=O)(=O)c2ccc3ccccc3c2)CC1 [Example 80, tert-Butyl [(trans-4-{[(2-naphthylsulfonyl)(2-phenylethyl)amino]methyl}cyclohexyl)-methyl]carbamate]	3.01	> 20
CCOC(=O)CN(C[C@H]1CC[C@H](CNC(=O)OC(C)(C)C)CC1)S(=O)(=O)c1ccc2ccccc2c1 [Example 81, Ethyl N-[(trans-4-{[(tert-butoxycarbonyl)amino]methyl}cyclohexyl)methyl]-N-(2-naphthylsulfonyl)glycinate]	3.03	> 20
CC(C)(C)OC(=O)NC[C@H]1CC[C@H](CN(CC2CCOCC2)S(=O)(=O)c2ccc3ccccc3c2)CC1 [Example 82, tert-Butyl [(trans-4-{[(2-naphthylsulfonyl)(tetrahydro-2H-pyran-4-ylmethyl)amino]-methyl}cyclohexyl)methyl]carbamate]	3.17	> 20
CC(C)(C)OC(=O)NC[C@H]1CC[C@H](CN(CC#N)S(=O)(=O)c2ccc3ccccc3c2)CC1 [Example 83, tert-Butyl [(trans-4-{[(cyanomethyl)(2-naphthylsulfonyl)amino]methyl}cyclohexyl)-methyl]carbamate]	3.27	> 20
C=CCN(C[C@H]1CC[C@H](CNC(=O)OC(C)(C)C)CC1)S(=O)(=O)c1ccc2ccccc2c1 [Example 84, tert-Butyl [(trans-4-{[allyl(2-naphthylsulfonyl)amino]methyl}cyclohexyl)methyl]-carbamate]	4.59	> 20
CCCCN(C[C@H]1CC[C@H](CNC(=O)OC(C)(C)C)CC1)S(=O)(=O)c1ccc2ccccc2c1 [Example 85, tert-Butyl [(trans-4-{[butyl(2-naphthylsulfonyl)amino]methyl}cyclohexyl)methyl]-carbamate]	6.69	> 20
CC(C)(C)OC(=O)NC[C@H]1CC[C@H](CN(CC(F)(F)F)S(=O)(=O)c2ccc3ccccc3c2)CC1 [Example 86, tert-Butyl [(trans-4-{[(2-naphthylsulfonyl)(2,2,2-trifluoroethyl)amino]methyl}cyclo-hexyl)methyl]carbamate]	6.98	> 20
CCCN(C[C@H]1CC[C@H](CNC(=O)OC(C)(C)C)CC1)S(=O)(=O)c1ccc2ccccc2c1 [Example 87, tert-Butyl [(trans-4-{[(2-naphthylsulfonyl)(propyl)amino]methyl}cyclohexyl)methyl]-carbamate]	8.71	> 20
CN(C[C@H]1CC[C@H](CNC(=O)OC(C)(C)C)CC1)S(=O)(=O)c1ccc2ccccc2c1 [Example 88, tert-Butyl [(trans-4-{[methyl(2-naphthylsulfonyl)amino]methyl}cyclohexyl)methyl]-carbamate]	2.45	> 20
Cc1nc(-c2ccc(S(=O)(=O)N(C)C[C@H]3CC[C@H](CNC(=O)OC(C)(C)C)CC3)s2)cs1 [Example 89, tert-Butyl ({trans-4-[(methyl {[5-(2-methyl-1,3-thiazol-4-yl)-2-thienyl]sulfonyl}-amino)methyl]cyclohexyl}methyl)carbamate]	3.03	> 20
CCN(C[C@H]1CC[C@H](CNC(=O)OC(C)(C)C)CC1)S(=O)(=O)c1ccc(-c2csc(C)n2)s1 [Example 90, tert-Butyl ({trans-4-[(ethyl {[5-(2-methyl-1,3-thiazol-4-yl)-2-thienyl]sulfonyl}amino)-methyl]cyclohexyl}methyl)carbamate]	2.01	> 20
CN(C[C@H]1CC[C@H](CNC(=O)OC(C)(C)C)CC1)C(=O)c1cc(-c2ccccc2)nc2ccccc12 [Example 91, tert-Butyl {[trans-4-({methyl[(2-phenylquinolin-4-yl)carbonyl]amino}methyl)cyclo-hexyl]methyl}carbamate]	2.3	4.82
CC(C)(C)OC(=O)NC[C@H]1CC[C@H](CNC(=O)c2cc(-c3ccc(CN)cc3)nc3ccccc23)CC1 [Example 92, tert-Butyl [(trans-4-{[({2-[4-(aminomethyl)phenyl]quinolin-4-yl}carbonyl)amino]-methyl}cyclohexyl)methyl]carbamate acetate]	0.05	0.26
CC(C)(C)OC(=O)NC[C@H]1CC[C@H](CNC(=O)c2cc(-c3ccc(C(=O)O)cc3)nc3ccccc23)CC1 [Example 93, 4-(4-{[(trans-4-{[(tert-Butoxycarbonyl)amino]methyl}cyclohexyl)methyl]carbamoyl}-quinolin-2-yl)benzoic acid]	0.17	1.85
CC(C)(C)OC(=O)NC[C@H]1CC[C@H](CNC(=O)c2cc(-c3cc[n+]([O-])cc3)nc3ccccc23)CC1 [Example 94, tert-Butyl ({trans-4-[({[2-(1-oxidopyridin-4-yl)quinolin-4-yl]carbonyl}amino)methyl]-cyclohexyl}methyl)carbamate]	0.93	5.47
CC(C)(C)OC(=O)NC[C@H]1CC[C@H](CNS(=O)(=O)c2cc(-c3ccccc3)nc3ccccc23)CC1 [Example 95, tert-Butyl {[trans-4-({[(2-phenylquinolin-4-yl)sulfonyl]amino}methyl)cyclohexyl]-methyl}carbamate]	0.98	2.14
CC(C)(C)OC(=O)NC[C@H]1CC[C@H](CNC(=O)c2cccc3ccccc23)CC1 [Example 96, tert-Butyl ({trans-4-[(1-naphthoylamino)methyl]cyclohexyl}methyl)carbamate]	3.64	> 20
CC(C)(C)NC(=O)NC[C@H]1CC[C@H](CNC(=O)c2cc(-c3ccncc3)nc3ccccc23)CC1 [Example 97, N-[(trans-4-{[(tert-Butylcarbamoyl)amino]methyl}cyclohexyl)methyl]-2-pyridin-4-ylquinoline-4-carboxamide]	6.14	18.3
CC(C)(C)OC(=O)NC[C@H]1CC[C@H](CNC(=O)c2cc(-c3cccc(CNS(C)(=O)=O)c3)nc3ccccc23)CC1 [Example 98, tert-Butyl ({trans-4-[({[2-(3-{[(methylsulfonyl)amino]methyl}phenyl)quinolin-4-yl]carbonyl}amino)methyl]cyclohexyl}methyl)carbamate]	0.07	1.37
CC(C)(C)OC(=O)NC[C@H]1CC[C@H](CNC(=O)c2cc(-c3cccc(CNC(N)=O)c3)nc3ccccc23)CC1 [Example 99, tert-Butyl {[trans-4-({[(2-{3-[(carbamoylamino)methyl]phenyl}quinolin-4-yl)-carbonyl]amino}methyl)cyclohexyl]methyl}carbamate]	0.1	0.78
CC(=O)NCc1cccc(-c2cc(C(=O)NC[C@H]3CC[C@H](CNC(=O)OC(C)(C)C)CC3)c3ccccc3n2)c1 [Example 100, tert-Butyl [(trans-4-{[({2-[3-(acetamidomethyl)phenyl]quinolin-4-yl}carbonyl)amino]-methyl}cyclohexyl)methyl]carbamate]	0.11	0.59
COC(=O)NCc1cccc(-c2cc(C(=O)NC[C@H]3CC[C@H](CNC(=O)OC(C)(C)C)CC3)c3ccccc3n2)c1 [Example 101, Methyl [3-(4-{[(trans-4-{[(tert-butoxycarbonyl)amino]methyl}cyclohexyl)methyl]-carbamoyl}quinolin-2-yl)benzyl]carbamate]	0.15	2.21
CC(C)(C)OC(=O)NC[C@H]1CC[C@H](CNC(=O)c2cc(-c3ccc(CCN)cc3)nc3ccccc23)CC1 [Example 102, tert-Butyl [(trans-4-{[({2-[4-(2-aminoethyl)phenyl]quinolin-4-yl}carbonyl)amino]-methyl}cyclohexyl)methyl]carbamate]	0.02	0.17
CC(=O)NCc1ccc(-c2cc(C(=O)NC[C@H]3CC[C@H](CNC(=O)OC(C)(C)C)CC3)c3ccccc3n2)cc1 [Example 103, tert-Butyl [(trans-4-{[({2-[4-(acetamidomethyl)phenyl]quinolin-4-yl}carbonyl)-amino]methyl}cyclohexyl)methyl]carbamate]	0.04	0.2
